Experimental data from US20110046191A1, “COMBINATION OF A MUSCARINIC RECEPTOR ANTAGONIST AND A BETA-2-ADRENOCEPTOR AGONIST” (ARGENTA DISCOVERY LTD., priority 2007, published 2011).
Like-named read-outs stand apart in the source and are kept apart here. Each block holds one compound with its values, some of them ahead of it.

Experiments:
[1] = tested on: isolated guinea-pig tracheal rings precontracted with methacholine; test: Isolated tracheal rings from guinea-pig preconstricted with methacholine; type: cell-based; conditions: for inhibition at 0.001 µM: Cavia porcellus, read-out: % inhibition of 1 μM Methacholine induced tone; for % inhibition of 1 μM Methacholine induced tone: Formoterol 1 nM, Compound A or B 10 nM
Method: Evaluation of Compound Activity on Isolated Tracheal Rings from Guinea-Pig Preconstricted with Methacholine. […] Male albino Dunkin Hartley guinea-pigs (300-350 g) were killed by cervical dislocation and the trachea excised. Adherent connective tissue was removed and the trachea cut into ring segments (2-3 mm wide). These were suspended in 10 mL organ baths containing a modified Krebs solution composition (mM): NaCl 117.56, KCl 5.36, NaH2PO4 1.15, MgSO4 1.18, glucose 11.10, NaHCO3 25.00 and CaCl2 2.55. […] The tracheal rings were suspended between two stainless steel hooks, one attached to an isometric force transducer and the other to a stationary support in the organ bath. Changes in isometric force were recorded. Acetyl-β-methylcholine chloride (Methacholine), Indomethacin, Corticosterone-21-acetate, Phentolamine hydrochloride, Ascorbic acid, CGP20712A methanesulphate were obtained from the Sigma Chemical Company. […] At the beginning of each experiment a force of 1.0 g·wt. was applied to the tissues and this was reinstated over a 30 min equilibration period until it remained steady. […] Tissues were washed by exchanging the bathing Krebs solution three times. […] Data were collected using the ADInstruments Chart5 for windows software, the tension generated was measured before addition of methacholine and after its response had reached plateau. […] All responses were expressed as percentage inhibition of the methacholine-induced contraction. The results are depicted in FIG. 6 and Table 2, wherein compound A is (MA2). […] Tissues were washed by exchanging the bathing Krebs solution three times. […] Data were collected using the ADInstruments Chart5 for windows software, the tension generated was measured before addition of methacholine and after its response had reached plateau. […] All responses were expressed as percentage inhibition of the methacholine-induced contraction. The results are depicted in FIG. 7 and Table 3, wherein compound B is (MA11).

[2] = molecular target: T1, human muscarinic receptors (M3) (Homo sapiens, UniProt P20309); test: Muscarinic Receptor Radioligand Binding Assay ([3H]-NMS); conditions: membranes expressing human M3
T1 construct: purchased
T1 sequence (P20309 whole entry): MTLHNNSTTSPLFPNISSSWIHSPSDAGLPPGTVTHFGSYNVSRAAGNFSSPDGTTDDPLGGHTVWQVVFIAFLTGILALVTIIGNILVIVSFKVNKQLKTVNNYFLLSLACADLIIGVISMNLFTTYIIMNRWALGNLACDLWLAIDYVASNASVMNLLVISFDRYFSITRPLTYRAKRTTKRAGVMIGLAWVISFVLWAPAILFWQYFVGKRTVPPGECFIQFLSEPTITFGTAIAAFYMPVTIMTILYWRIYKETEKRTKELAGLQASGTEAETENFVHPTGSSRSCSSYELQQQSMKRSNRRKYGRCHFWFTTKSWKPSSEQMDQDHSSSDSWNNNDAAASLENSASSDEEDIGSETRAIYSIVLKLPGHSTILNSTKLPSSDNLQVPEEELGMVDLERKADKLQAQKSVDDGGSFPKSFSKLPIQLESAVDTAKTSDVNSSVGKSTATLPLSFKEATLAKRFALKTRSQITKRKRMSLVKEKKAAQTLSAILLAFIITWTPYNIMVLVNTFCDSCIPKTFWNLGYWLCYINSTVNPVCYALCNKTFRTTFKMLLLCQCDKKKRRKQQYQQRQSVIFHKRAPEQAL
Method: The inhibitory effects of compounds of the muscarinic antagonists were determined by a Muscarinic Receptor Radioligand Binding Assay.
Radioligand binding studies utilising [^3H]-N-methyl scopolamine ([^3H]-NMS) and commercially available cell membranes expressing the human muscarinic receptors (M2 or M3) were used to assess the affinity of muscarinic antagonists for M2 and M3 receptors. Membranes in TRIS buffer were incubated in 96-well plates with [^3H]-NMS and M3 antagonist at various concentrations for 3 hours. Membranes and bound radioligand were then harvested by filtration and allowed to dry overnight. Scintillation fluid was then added and the bound radioligand counted using a Canberra Packard Topcount scintillation counter

[3] = Gravimetric vapour sorption (GVS); type: physicochemical; conditions: at 80% RH, ambient temperature
Method: GVS profiles were measured using a Dynamic Vapour Sorption DVS-1 instrument. The solid sample ca. 1-5 mg was placed into a glass vessel and the weight of the sample was recorded during a dual cycle step method (40 to 90 to 0 to 90 to 0% relative humidity (RH), in steps of 10% RH). GVS profiles were recorded at ambient temperature.

[4] = tested on: Methacholine-induced bronchoconstriction in the guinea pig; test: Lung function in anaesthetised guinea pigs: methacholine-induced bronchoconstriction; type: in vivo; conditions: after 5 μg/kg methacholine i.v.
Method: Evaluation of Lung Function in Anaesthetised Guinea Pigs.
Male Dunkin-Hartley guinea pigs (300-600 g) were weighed and dosed with vehicle (0.05M phosphate, 0.1% Tween 80, 0.6% saline, pH 6) or compound via the intratracheal route under recoverable gaseous anaesthesia (5% halothane in oxygen). Animals were dosed with compound or vehicle two hours prior to the administration of methacholine. Guinea pigs were anaesthetised with pentobarbitone (1 mL/kg of 60 mg/mL solution i.p.) approximately 30 minutes prior to the first bronchoconstrictor administration. The trachea was cannulated and the animal ventilated using a constant volume respiratory pump (Harvard Rodent Ventilator model 683) at a rate of 60 breath/min and a tidal volume of 5 mL/kg. A jugular vein was cannulated for the administration of methacholine or maintenance anaesthetic (0.1 mL of pentobarbitone solution, 60 mg/mL, as required).
The animals were transferred to a Flexivent System (SCIREQ, Montreal, Canada) in order to measure airway resistance. The animals were ventilated (quasi-sinusoidal ventilation pattern) at 60 breaths/min at a tidal volume of 5 mL/kg. A positive end expiratory pressure of 2-3 cm H2O was applied. Respiratory resistance was measured using the Flexivent “snapshot” facility (1 second duration, 1 Hz frequency). Once a stable baseline resistance value had been obtained the animals were given methacholine in ascending doses (0.5, 1, 2, 3 and 5 μg/kg, i.v) at approximately 4-minute intervals via the jugular catheter. After each administration of bronchoconstrictor the peak resistance value was recorded. Guinea pigs were euthanised with approximately 1.0 mL pentobarbitone sodium (Euthatal) intravenously after the completion of the lung function measurements.
Percentage bronchoprotection produced by a compound was calculated at each dose of brochoconstrictor as follows:
Where % change Rveh is the mean of the maximum percentage change in airway resistance in the vehicle treated group. The results reported were measured after 5 μg/kg methacholine and were expressed as percentage bronchoprotection (mean±s.e.mean).
Guinea pigs were dosed with vehicle, 3 and 27 μg/kg compound (BA1), 0.2 μg/kg compound (MA2) (Crystalline Form A) or a combination of 3 μg/kg Compound (BA1) and 0.2 μg/kg Compound (MA2) via the intratracheal route. Administration of increasing intravenous doses of methacholine (0.5, 1, 2, 3 and 5 μg/kg) evoked dose-related bronchoconstriction in the vehicle treated animals ranging from 13±2.6% at 0.5 μg/kg to 2530±280% at 5 μg/kg two hours after vehicle administration (n=9).
[…] Administration of increasing intravenous doses of methacholine (0.5, 1, 2, 3 and 5 μg/kg) evoked dose-related bronchoconstriction in the vehicle treated animals ranging from 14±2.6% at 0.5 μg/kg to 2240±269% at 5 μg/kg two hours after vehicle administration (n=10).

[5] = MA2 0.2 μg/kg intratracheal, 2 hours prior to methacholine
[6] = MA11 at 0.2 μg/kg intratracheal

SMILES: COc1ccc(CC(C)NCC(O)c2ccc(O)c(NC=O)c2)cc1 (centres unmarked) [Formoterol, N-[2-hydroxy-5-[(1)-1-hydroxy-2-[[(1)-2-(4-methoxyphenyl)-1-methylethyl]amino]ethyl]phenyl]-formamide, reference compound]
inhibition at 0.001 µM ([1]; 10 min): 21% | inhibition at 0.001 µM ([1]; 20 min): 37% | inhibition at 0.001 µM ([1]; 0.5 h): 41% | inhibition at 0.001 µM ([1]; 40 min): 42% | inhibition at 0.001 µM ([1]; 50 min): 44%

SMILES: C[N+](C)(CCCOc1ccccc1)Cc1cnc([C@](O)(c2ccccc2)C2CCCCC2)o1.[Br-] [MA2 Crystalline Form A, [2-((R)-Cyclohexyl-hydroxy-phenyl-methyl)-oxazol-5-ylmethyl]-dimethyl-(3-phenoxy-propyl)-ammonium bromide]
GVS weight increase [3]: 0.8 % w/w

SMILES: C[N+](C)(CCCOc1ccccc1)Cc1cnc([C@](O)(c2ccccc2)C2CCCCC2)o1 [MA7 Form 1, [2-((R)-Cyclohexyl-hydroxy-phenyl-methyl)-oxazol-5-ylmethyl]-dimethyl-(3-phenoxy-propyl)-ammonium hemi-naphthalene-1,5-disulfonate]
GVS weight increase [3]: 3.1 % w/w

SMILES: C[N+](C)(CCCOc1ccccc1)Cc1cnc([C@](O)(c2ccccc2)C2CCCCC2)o1 [MA7 Form 2, [2-((R)-Cyclohexyl-hydroxy-phenyl-methyl)-oxazol-5-ylmethyl]-dimethyl-(3-phenoxy-propyl)-ammonium hemi-naphthalene-1,5-disulfonate]
GVS weight increase [3]: 0.7 % w/w

SMILES: C[N+](C)(CCCOc1ccccc1)Cc1cnc([C@](O)(c2ccccc2)C2CCCCC2)o1 [MA7 Form 3, [2-((R)-Cyclohexyl-hydroxy-phenyl-methyl)-oxazol-5-ylmethyl]-dimethyl-(3-phenoxy-propyl)-ammonium hemi-naphthalene-1,5-disulfonate]
GVS weight increase [3]: 3.0 % w/w

SMILES: C[N+](C)(CCOCc1ccc(Cl)cc1)Cc1cnc([C@](O)(c2ccccc2)C2CCCCC2)o1 [MA11, [2-(4-chloro-benzyloxy)-ethyl]-[2-((R)-cyclohexyl-hydroxy-phenyl-methyl)-oxazol-5-ylmethyl]-dimethyl-ammonium hemi-naphthalene-1,5-disulfonate]
increase in resistance [4, 6]: 1880±272% | inhibition of methacholine-induced bronchoconstriction [4, 6]: 16% | % inhibition of 1 μM Methacholine induced tone ([1]; 10 min): 11% | % inhibition of 1 μM Methacholine induced tone ([1]; 20 min): 29% | % inhibition of 1 μM Methacholine induced tone ([1]; 30 min): 49% | % inhibition of 1 μM Methacholine induced tone ([1]; 40 min): 67% | % inhibition of 1 μM Methacholine induced tone ([1]; 50 min): 84%

More lines, main results first:

Ki [2]: 9.4 nM
SMILES: C[N+](C)(CCCOc1ccccc1)Cc1cnc([C@@](O)(c2ccccc2)C2CCCCC2)o1 [MA1, [2-((S)-Cyclohexyl-hydroxy-phenyl-methyl)-oxazol-5-ylmethyl]-dimethyl-(3-phenoxy-propyl)-ammonium bromide]

Ki [2]: 0.2 nM
SMILES: C[N+](C)(CCCOc1ccccc1)Cc1cnc([C@](O)(c2ccccc2)C2CCCCC2)o1.[Br-] [MA2, [2-((R)-Cyclohexyl-hydroxy-phenyl-methyl)-oxazol-5-ylmethyl]-dimethyl-(3-phenoxy-propyl)-ammonium bromide]
increase in resistance [4, 5]: 2210±268% | inhibition of methacholine-induced bronchoconstriction [4, 5]: 13% | % inhibition of 1 μM Methacholine induced tone ([1]; 10 min): 23% | % inhibition of 1 μM Methacholine induced tone ([1]; 20 min): 62% | % inhibition of 1 μM Methacholine induced tone ([1]; 30 min): 94% | % inhibition of 1 μM Methacholine induced tone ([1]; 40 min): 104% | % inhibition of 1 μM Methacholine induced tone ([1]; 50 min): 106%

Ki [2]: 0.6 nM
SMILES: C[N+](C)(CCOCCc1ccccc1)Cc1cnc([C@](O)(c2ccccc2)C2CCCCC2)o1 [MA3, [2-((R)-Cyclohexyl-hydroxy-phenyl-methyl)-oxazol-5-ylmethyl]-dimethyl-(2-phenethyloxy-ethyl)-ammonium bromide]

Ki [2]: 0.9 nM
SMILES: C[N+](C)(CCCOc1ccc(Cl)c(Cl)c1)Cc1cnc([C@](O)(c2ccccc2)C2CCCCC2)o1 [MA4, [2-((R)-Cyclohexyl-hydroxy-phenyl-methyl)-oxazol-5-ylmethyl]-[3-(3,4-dichloro-phenoxy)-propyl]-dimethyl-ammonium bromide]

Ki [2]: 2.1 nM
SMILES: C[N+](C)(CCOCc1ccc(Cl)c(Cl)c1)Cc1cnc([C@](O)(c2ccccc2)C2CCCCC2)o1 [MA5, [2-((R)-Cyclohexyl-hydroxy-phenyl-methyl)-oxazol-5-ylmethyl]-[2-(3,4-dichloro-benzyloxy)-ethyl]-dimethyl-ammonium bromide]

Ki [2]: 0.6 nM
SMILES: C[N+](C)(CCOCc1ccc(Cl)cc1)Cc1cnc([C@](O)(c2ccccc2)C2CCCCC2)o1 [MA6, [2-(4-chloro-benzyloxy)-ethyl]-[2-((R)-cyclohexyl-hydroxy-phenyl-methyl)-oxazol-5-ylmethyl]-dimethyl-ammonium bromide]
